Measurements published in patent US6693115B2, “Acid addition salts of hydropyridine derivatives” (Sankyo Company, Limited, priority 2000, dated 2004).

Legend:
[1] = tested on: ADP-induced platelet aggregation; assay: Inhibitory effect on platelet aggregation (feeding), ex vivo PRP after oral administration; assay type: in vivo, male beagle dogs; settings: fed dogs, oral 0.3 mg/kg, ADP 20 μM, mean ± standard deviation; for Inhibition (%) of platelet aggregation 2 hours: 2 hours after administration; for Inhibition (%) of platelet aggregation 4 hours: 4 hours after administration
Experimental: Inhibitory Effect on Platelet Aggregation (Feeding)
For this test, male beagle dogs (about 10 kg in body weight, purchased from Kasho Co., Ltd. and Nippon Nosan Kogyo K.K.) were used. One group consisted of 5 or 6 dogs. The platelet aggregation was measured using an automatic platelet aggregometer (“PAM-6C”, trade name; a product of Mebanix Corporation) in accordance with the method of Born, et al. (J. Physiol., 168, 178 (1963)) with a partial modification.
Each of 2.5 hours and 4.5 hours after feeding, 5.4 ml of blood was collected from the cephalic vein of each dog using sodium citrate (0.6 ml, 3.8% (w/v)) as an anticoagulant. The citrate-added blood was centrifuged (240 g, 20 minutes) to separate platelet-rich plasma (hereinafter referred to as “PRP”) and platelet-poor plasma (hereinafter referred to as “PPP”). After the number of platelets in PRP was counted by an automatic hematology analyzer (“K-1000”, trade name; a product of Sysmex Corporation), PPP was added to adjust the number of platelets to 3×10^8/ml. PRP (240 μl) dispensed in a cuvette was set on the automatic platelet aggregometer. After preheating (at 37° C.) for 1 minute, 10 μl of ADP (final concentration: 20 μM) was added to cause platelet aggregation. For 10 minutes, platelet aggregation was measured and the maximum aggregation was determined to give the pre-administration value.
On the next day, 30 minutes after feeding, each test compound filled in a gelatin capsule was orally administered to the dogs. The blood was collected each of 2 and 4 hours after the administration. The platelet aggregation of PRP was measured, whereby the maximum aggregation was determined. The inhibition (%) of platelet aggregation by the test compound was calculated by comparing it with the pre-administration value.
In these tables, the term “hydrochloride” means 2-acetoxy-5-(α-cyclopropylcarbonyl-2-fluorobenzyl)-4,5,6-7-tetrahydrothieno[3,2-c]pyridine hydrochloride obtained in Example 1, “free form” means 2-acetoxy-5-(α-cyclopropylcarbonyl-2-fluorobenzyl)-4,5,6,7-tetrahydrothieno[3,2-c]pyridine, and “maleate” means 2-acetoxy-5-(α-cyclopropylcarbonyl-2-fluorobenzyl)-4,5,6,7-tetrahydrothieno[3,2-c]pyridine maleate obtained in Example 2.

[2] = tested on: ADP-induced platelet aggregation; assay: Inhibitory effect on platelet aggregation (fasting), ex vivo PRP after oral administration; assay type: in vivo, male beagle dogs; settings: Table 4, fasted dogs, oral 1.0 mg/kg, ADP 20 μM, mean ± standard deviation; for Inhibition (%) of platelet aggregation 2 hours: 2 hours after administration; for Inhibition (%) of platelet aggregation 4 hours: 4 hours after administration
Experimental: Inhibitory Effect on Platelet Aggregation (Fasting)
For this test, male beagle dogs (about 10 kg in body weight, purchased from Kasho Co., Ltd. and Nippon Nosan Kogyo K.K.) were used. One group consisted of 3 dogs. The platelet aggregation was measured using an automated platelet aggregometer (“PAM-6C”, trade name; a product of Mebanix Corporation) in accordance with the method of Born, et al. (J. Physiol., 168, 178(1963)) with a partial modification.
From the cephalic vein of each dog fasted overnight, 5.4 ml of the blood was collected using sodium citrate (0.6 ml, 3.8% (w/v)) as an anticoagulant. The resulting citrate-added blood was centrifuged (240 g, 20 minutes) to separate platelet-rich plasma (hereinafter referred to as “PRP”) and platelet-poor plasma (hereinafter referred to as “PPP”). After the number of platelets in PRP was counted by an automatic hematology analyzer (“K-1000”, trade name; a product of Sysmex Corporation), PPP was added to adjust the number of platelets to 3×10^8/ml. PRP (240 μl) dispensed in a cuvette was set on the automatic platelet aggregometer. After preheating (at 37° C.) for 1 minute, 10 μl of ADP (final concentration: 20 μM) was added to cause platelet aggregation. For 10 minutes, platelet aggregation was measured and the maximum aggregation was determined to give the pre-administration value.
On the next day, each test compound filled in a gelatin capsule was orally administered to the dogs. The blood was collected each of 2 and 4 hours after administration. The platelet aggregation of PRP was measured, whereby the maximum aggregation was determined. The inhibition (%) of platelet aggregation by the test compound was calculated by comparing it with the pre-administration value.
In this table, the term “maleate” means 2-acetoxy-5-(α-cyclopropylcarbonyl-2-fluorobenzyl)-4,5,6,7-tetrahydrothieno[3,2-c]pyridine maleate obtained in Example 2, while the term “free form” means 2-acetoxy-5-(α-cyclopropylcarbonyl-2-fluorobenzyl)-4,5,6,7-tetrahydrothieno[3,2-c]pyridine.

[3] = Storage stability of crystal forms; assay type: physicochemical; settings: comparison between hydrochloride crystal forms

| Compound | Inhibition (%) of platelet aggregation 2 hours ([1]; Table 2) [%] | Inhibition (%) of platelet aggregation 4 hours ([1]; Table 2) [%] | Inhibition (%) of platelet aggregation 2 hours ([1]; Table 3) [%] | Inhibition (%) of platelet aggregation 4 hours ([1]; Table 3) [%] | Inhibition (%) of platelet aggregation 2 hours [2] [%] | Inhibition (%) of platelet aggregation 4 hours [2] [%] | storage stability [3] |
| --- | --- | --- | --- | --- | --- | --- | --- |
| CC(=O)Oc1cc2c(s1)CCN(C(C(=O)C1CC1)c1ccccc1F)C2 (stereo not drawn) [Free form, 2-Acetoxy-5-(α-cyclopropylcarbonyl-2-fluorobenzyl)-4,5,6,7-tetrahydrothieno[3,2-c]pyridine, reference compound] | 25.8 ± 10.9 | 28.6 ± 14.2 | 21.7 ± 9.8 | 23.8 ± 12.6 | 27.9 ± 24.8 | 28.7 ± 24.4 | – |
| CC(=O)Oc1cc2c(s1)CCN(C(C(=O)C1CC1)c1ccccc1F)C2.Cl (stereo not drawn) [Hydrochloride, 2-Acetoxy-5-(α-cyclopropylcarbonyl-2-fluorobenzyl)-4,5,6,7-tetrahydrothieno[3,2-c]pyridine hydrochloride (crystal A)] | 49.0 ± 18.7 | 48.5 ± 18.3 | – | – | – | – | – |
| CC(=O)Oc1cc2c(s1)CCN(C(C(=O)C1CC1)c1ccccc1F)C2.O=C(O)/C=C\C(=O)O (stereo not drawn) [Maleate, 2-Acetoxy-5-(α-cyclopropylcarbonyl-2-fluorobenzyl)-4,5,6,7-tetrahydrothieno[3,2-c]pyridine maleate] | – | – | 50.9 ± 14.5 | 58.6 ± 15.7 | 63.4 ± 22.9 | 88.5 ± 5.7 | – |
| CC(=O)Oc1cc2c(s1)CCN(C(C(=O)C1CC1)c1ccccc1F)C2.Cl (stereo not drawn) [crystal B1, 2-Acetoxy-5-(α-cyclopropylcarbonyl-2-fluorobenzyl)-4,5,6,7-tetrahydrothieno[3,2-c]pyridine Hydrochloride (Crystal B1)] | – | – | – | – | – | – | more excellent storage stability than crystal A |
| CC(=O)Oc1cc2c(s1)CCN(C(C(=O)C1CC1)c1ccccc1F)C2.Cl (stereo not drawn) [crystal B2, 2-Acetoxy-5-(α-cyclopropylcarbonyl-2-fluorobenzyl)-4,5,6,7-tetrahydrothieno[3,2-c]pyridine hydrochloride (crystal B2)] | – | – | – | – | – | – | more excellent storage stability than crystal B1 |
